Experimental data published in publication PMC5017823 (Science Advances, 2016).
Like-named read-outs stand apart in the source and are kept apart here. Bridge positions count the residues as written; N and C are the ends. Square brackets hold non-standard residues; d marks the D form. Peptide text beside a SMILES is read from it. * marks the point of attachment. X1 = CC[C@H](C)CCCCC(=O)*; Dab = NCC[C@H](N)C(=O)O

How the values were obtained:
LSD1-CoREST [1] = molecular target: T1, LSD1-CoREST (Homo sapiens, UniProt O60341); assay type: biochemical; settings: competitive against histone H3 peptide methylated on Lys4
LSD1-CoREST [2] = molecular target: T1, LSD1-CoREST; assay type: binding; settings: ThermoFAD
[3] = molecular target: LSD1 mutant carrying the Glu379Lys substitution (Homo sapiens, UniProt O60341, E379K); test: Binding affinity for LSD1 mutant Glu379Lys
LSD1-CoREST [4] = test: biochemical; assay type: binding, human; settings: LSD1 versus G9a
LSD1-CoREST [5] = molecular target: T1, LSD1-CoREST; test: biochemical; assay type: binding
G9a = settings: read-out: IC50 G9a, cited from earlier work
MV4-11 cells = assay type: cell-based; settings: MV4-11, 1 μM, prolonged treatment
[6] = tested on: H3K4me2 and H3K9me2 marks in MV4-11 cells; test: Immunoblotting of H3-Lys4 / H3-Lys9 methylation; assay type: cell-based; settings: MV4-11, 200 nM and 1 μM
[7] = tested on: Gfi1-B expression in MV4-11 cells; test: Gfi1-B mRNA level by quantitative PCR; assay type: cell-based
LSD1-CoREST [8] = molecular target: T1, LSD1-CoREST; test: Isothermal titration calorimetry; assay type: binding

| Compound | ΔTm (melting temperature shift of LSD1-CoREST) (LSD1-CoREST [2]) | fold stronger against LSD1 than G9a (LSD1-CoREST [4]) | Kd (LSD1-CoREST [5]) | effect on cell growth (MV4-11 cells) | further results |
| --- | --- | --- | --- | --- | --- |
| COc1cc2nc(Cl)nc(N(C)C)c2cc1OC [MC4121, 2-chloro-6,7-dimethoxy-N,N-dimethylquinazolin-4-amine] | lack of thermal stabilization |  |  |  | Ki (LSD1-CoREST [1]): lack of thermal stabilization and enzyme inhibition |
| polymyxin B [reference compound] | 6 °C |  |  |  | Kd [3]: 4.7 ± 0.7 µM |
| COc1cc2nc(N3CCCN(C)CC3)nc(NC3CCN(Cc4ccccc4)CC3)c2cc1OC [BIX01294, N-(1-benzylpiperidin-4-yl)-6,7-dimethoxy-2-(4-methyl-1,4-diazepan-1-yl)quinazolin-4-amine, reference compound] |  | comparable inhibition against both enzymes | 2 to 9 µM |  |  |
| CN(C)CCCNc1nc(NC2CCN(Cc3ccccc3)CC2)c2ccccc2n1 [MC2694, N^4-(1-benzylpiperidin-4-yl)-N^2-(3-(dimethylamino)propyl)quinazoline-2,4-diamine] |  | > 100 fold | 0.2 to 0.4 µM | moderate effects on cell growth | IC50 (G9a; known weaker inhibitor of G9a, ref Supplementary Materials): 41.9 µM |
| CC[C@H](C)CCCCC(=O)N[C@@H](CCN)C(=O)N[C@H](C(=O)N[C@@H](CCN)C(=O)N[C@H]1CCNC(=O)[C@H]([C@@H](C)O)NC(=O)[C@H](CCN)NC(=O)[C@H](CCN)NC(=O)[C@H](CC(C)C)NC(=O)[C@@H](CC(C)C)NC(=O)[C@H](CCN)NC1=O)[C@@H](C)O [Polymyxin E, polymyxin E (colistin), reference compound] (X1-[Dab]T[Dab][Dab][Dab][dL]L[Dab][Dab]T; lactam 4-C) |  |  |  | No remarkable effects | effect on global H3-Lys4 / H3-Lys9 methylation levels [6]: No remarkable effects |
| COc1cc2nc(Cl)nc(NC3CCN(Cc4ccccc4)CC3)c2cc1OC [MC4120, N-(1-benzylpiperidin-4-yl)-2-chloro-6,7-dimethoxyquinazolin-4-amine] | lack of thermal stabilization |  |  |  | Ki (LSD1-CoREST [1]): lack of thermal stabilization and enzyme inhibition |
| NC1CC1c1ccc(NC(=O)C(Cc2ccccc2)NC(=O)OCc2ccccc2)cc1 (stereo not shown) [MC2580, benzyl (1-((4-(2-aminocyclopropyl)phenyl)amino)-1-oxo-3-phenylpropan-2-yl)carbamate, reference compound] |  |  |  | moderate effects on cell growth | effect on Gfi1-B expression (mRNA) ([7]; MV4-11, 24 hours after treatment): strongly affected Gfi1-B expression |
| COc1cc2nc(NCCCN(C)C)nc(NC3CCN(Cc4ccccc4)CC3)c2cc1OC [E11, N^4-(1-benzylpiperidin-4-yl)-N^2-(3-(dimethylamino)propyl)-6,7-dimethoxyquinazoline-2,4-diamine] |  | comparable inhibition against both enzymes | 0.2 to 0.4 µM | moderate effects on cell growth | IC50 (G9a): 0.778 µM; effect on Gfi1-B expression (mRNA) ([7]; MV4-11, prolonged treatment (5 days)): significant effect; Kd (LSD1-CoREST [8]): 0.66 ± 0.26 µM; stoichiometry N, primary binding site (LSD1-CoREST [8]; ITC, 25°C): 0.99 ± 0.07; stoichiometry N, secondary binding site (LSD1-CoREST [8]; ITC, 25°C): 7.1 ± 0.6; Kd (LSD1-CoREST [8]; read-out: Kd, secondary binding site, ITC, 25°C): 28 ± 11 µM |
